Data: PMC12136037, “Type II kinase inhibitors that target Parkinson’s disease–associated LRRK2” (Science Advances, 2025)

Legend:
Assay type in all cases: binding
LRRK2^KW = target: T1, LRRK2^KW (Homo sapiens, UniProt Q5S007); assay: DSF thermal stabilization of LRRK2^KW; settings: DSF, LRRK2^KW, 10 μM inhibitor
T1 construct: LRRK2 R1847 to E2527; His6-Z-tag (TEV cleavable) (N, cleaved yes); host or cells: Sf9 insect cells (baculovirus)
T1 sequence (Q5S007 1847-2527): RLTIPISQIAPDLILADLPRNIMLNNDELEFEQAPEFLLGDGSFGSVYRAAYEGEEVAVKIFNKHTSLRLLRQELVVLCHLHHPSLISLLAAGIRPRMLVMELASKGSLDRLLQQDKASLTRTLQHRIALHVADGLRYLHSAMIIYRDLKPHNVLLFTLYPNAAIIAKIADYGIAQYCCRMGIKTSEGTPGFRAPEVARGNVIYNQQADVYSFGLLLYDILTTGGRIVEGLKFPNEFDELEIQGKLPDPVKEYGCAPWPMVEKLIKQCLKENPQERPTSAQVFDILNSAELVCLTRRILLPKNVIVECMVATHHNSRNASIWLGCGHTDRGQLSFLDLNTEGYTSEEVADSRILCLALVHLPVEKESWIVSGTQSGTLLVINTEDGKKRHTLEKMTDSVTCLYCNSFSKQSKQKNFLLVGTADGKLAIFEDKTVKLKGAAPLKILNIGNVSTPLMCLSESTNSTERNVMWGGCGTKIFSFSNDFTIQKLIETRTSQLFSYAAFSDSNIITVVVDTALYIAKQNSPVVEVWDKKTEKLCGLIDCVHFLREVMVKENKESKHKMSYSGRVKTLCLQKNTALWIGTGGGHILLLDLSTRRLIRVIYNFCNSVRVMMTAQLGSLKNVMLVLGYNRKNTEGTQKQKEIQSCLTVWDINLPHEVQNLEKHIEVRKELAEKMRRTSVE
Method in brief: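 DSF on 4 μM LRRK2^KW in 20 mM Hepes pH 7.4, 150 mM NaCl, 0.5 mM TCEP, 0.5% glycerol, 20 μM GDP, 2.5 mM MgCl2 with SYPRO Orange; inhibitor at 10 μM. Tm was taken as the minimum of the first derivative of fluorescence versus temperature, relative to control.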

[1] = target: T2, ~100 representative kinases (Homo sapiens, UniProt P34947); assay: DSF 100 kinase selectivity screen; settings: protein GPRK5; average of three replicates;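 further: compound tested at 20 µM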
T2 construct: Recombinant protein kinase domains with a concentration of 2 μM
Experimental: (§1) Recombinant protein kinase domains with a concentration of 2 μM were mixed with a 20 μM compound solution in dimethyl sulfoxide (DMSO), 20 mM Hepes (pH 7.5), and 500 mM NaCl. SYPRO Orange (5000×, Invitrogen) was added as a fluorescence probe (1μl/ml). Subsequently, temperature-dependent protein unfolding profiles were measured using the QuantStudio 5 realtime PCR machine (Thermo Fisher Scientific, Waltham, MA, USA). […] The temperature was raised with a step rate of 3°C/min. […] Differences in melting temperature are given as ΔTm values in degrees Celsius. […]

[2] = target: T3, ~100 representative kinases (Homo sapiens, UniProt Q9NSY1); assay: DSF 100 kinase selectivity screen; settings: Protein BMP2K; average of three replicates;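 further: compound tested at 20 µM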
T3 construct: Recombinant protein kinase domains with a concentration of 2 μM
Experimental: as §1

[3] = target: T4, ~100 representative kinases (Homo sapiens, UniProt Q96NX5); assay: DSF 100 kinase selectivity screen; settings: Protein CAMK1G; average of three replicates;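 further: compound tested at 20 µM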
T4 construct: Recombinant protein kinase domains with a concentration of 2 μM
Experimental: as §1

[4] = target: T5, ~100 representative kinases (Homo sapiens, UniProt P19784); assay: DSF 100 kinase selectivity screen; settings: Protein CK2A2; average of three replicates;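 further: compound tested at 20 µM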
T5 construct: Recombinant protein kinase domains with a concentration of 2 μM
Experimental: as §1

[5] = target: T6, ~100 representative kinases (Homo sapiens, UniProt O00444); assay: DSF 100 kinase selectivity screen; settings: protein PLK4; average of three replicates;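 further: compound tested at 20 µM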
T6 construct: Recombinant protein kinase domains with a concentration of 2 μM
T6 sequence (O00444 1-970): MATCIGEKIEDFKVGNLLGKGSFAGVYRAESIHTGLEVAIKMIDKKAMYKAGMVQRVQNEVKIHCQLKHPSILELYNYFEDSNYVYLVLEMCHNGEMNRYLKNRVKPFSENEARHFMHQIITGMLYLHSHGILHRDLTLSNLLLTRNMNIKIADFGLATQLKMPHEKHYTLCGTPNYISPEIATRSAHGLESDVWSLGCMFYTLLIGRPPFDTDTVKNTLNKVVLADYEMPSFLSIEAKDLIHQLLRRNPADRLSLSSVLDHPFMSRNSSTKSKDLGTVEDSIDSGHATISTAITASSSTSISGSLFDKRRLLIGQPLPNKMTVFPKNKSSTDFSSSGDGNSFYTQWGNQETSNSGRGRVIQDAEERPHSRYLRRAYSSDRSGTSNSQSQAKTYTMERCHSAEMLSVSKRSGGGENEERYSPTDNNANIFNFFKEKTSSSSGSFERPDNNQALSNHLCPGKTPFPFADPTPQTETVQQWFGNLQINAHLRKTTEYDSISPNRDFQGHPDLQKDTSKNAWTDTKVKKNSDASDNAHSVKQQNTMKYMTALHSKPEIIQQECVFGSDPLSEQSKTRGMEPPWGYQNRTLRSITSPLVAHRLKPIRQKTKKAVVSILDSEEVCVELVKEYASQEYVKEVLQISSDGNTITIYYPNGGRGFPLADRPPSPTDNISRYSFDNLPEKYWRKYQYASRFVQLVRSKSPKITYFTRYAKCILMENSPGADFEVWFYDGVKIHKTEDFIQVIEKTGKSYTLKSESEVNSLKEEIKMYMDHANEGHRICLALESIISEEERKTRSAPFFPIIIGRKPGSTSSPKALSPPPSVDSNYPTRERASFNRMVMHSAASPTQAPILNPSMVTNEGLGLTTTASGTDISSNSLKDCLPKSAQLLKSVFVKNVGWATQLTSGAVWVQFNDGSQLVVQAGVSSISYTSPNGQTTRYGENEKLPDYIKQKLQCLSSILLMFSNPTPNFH
Experimental: as §1

[6] = target: T7, ~100 representative kinases (Homo sapiens, UniProt P68400); assay: DSF 100 kinase selectivity screen; settings: Protein CK2A1; average of three replicates;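 further: compound tested at 20 µM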
T7 construct: Recombinant protein kinase domains with a concentration of 2 μM
Experimental: as §1

[7] = target: T8, ~100 representative kinases (Homo sapiens, UniProt Q00532); assay: DSF 100 kinase selectivity screen; settings: Protein CDKL1; average of three replicates
T8 construct: Recombinant protein kinase domains with a concentration of 2 μM
Experimental: as §1

[8] = target: T9, ~100 representative kinases (Homo sapiens, UniProt P53779); assay: DSF 100 kinase selectivity screen; settings: protein MAPK10; average of three replicates
T9 construct: Recombinant protein kinase domains with a concentration of 2 μM
Experimental: as §1

[9] = target: T10, ~100 representative kinases (Homo sapiens, UniProt Q14680); assay: DSF 100 kinase selectivity screen; settings: protein MELK; average of three replicates
T10 construct: Recombinant protein kinase domains with a concentration of 2 μM
Experimental: as §1

[10] = target: T11, ~100 representative kinases (Homo sapiens, UniProt P21802); assay: DSF 100 kinase selectivity screen; settings: protein FGFR2; average of three replicates
T11 construct: Recombinant protein kinase domains with a concentration of 2 μM
Experimental: as §1

T7 sequence (P68400 whole entry, the tested form may be a part): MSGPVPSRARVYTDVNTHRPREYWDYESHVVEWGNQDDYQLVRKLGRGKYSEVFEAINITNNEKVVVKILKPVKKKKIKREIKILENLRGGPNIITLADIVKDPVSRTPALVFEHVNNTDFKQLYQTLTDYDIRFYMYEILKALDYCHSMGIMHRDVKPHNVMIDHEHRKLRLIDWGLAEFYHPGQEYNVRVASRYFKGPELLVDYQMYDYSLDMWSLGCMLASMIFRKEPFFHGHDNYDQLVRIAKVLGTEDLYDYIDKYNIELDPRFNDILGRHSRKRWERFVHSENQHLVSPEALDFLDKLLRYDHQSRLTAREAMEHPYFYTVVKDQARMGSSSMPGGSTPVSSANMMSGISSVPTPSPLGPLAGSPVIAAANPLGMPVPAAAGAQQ
T8 sequence (Q00532 whole entry, the tested form may be a part): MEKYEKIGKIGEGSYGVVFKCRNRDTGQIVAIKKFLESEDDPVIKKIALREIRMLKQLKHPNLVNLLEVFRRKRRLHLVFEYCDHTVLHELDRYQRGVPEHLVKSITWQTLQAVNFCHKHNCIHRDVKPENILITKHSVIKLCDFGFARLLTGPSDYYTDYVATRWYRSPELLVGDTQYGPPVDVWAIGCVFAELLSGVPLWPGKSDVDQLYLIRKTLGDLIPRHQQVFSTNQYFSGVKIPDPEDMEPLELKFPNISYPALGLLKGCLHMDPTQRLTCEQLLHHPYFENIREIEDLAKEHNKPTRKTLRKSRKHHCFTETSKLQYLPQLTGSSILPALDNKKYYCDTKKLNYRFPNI
T2 sequence (P34947 whole entry, the tested form may be a part): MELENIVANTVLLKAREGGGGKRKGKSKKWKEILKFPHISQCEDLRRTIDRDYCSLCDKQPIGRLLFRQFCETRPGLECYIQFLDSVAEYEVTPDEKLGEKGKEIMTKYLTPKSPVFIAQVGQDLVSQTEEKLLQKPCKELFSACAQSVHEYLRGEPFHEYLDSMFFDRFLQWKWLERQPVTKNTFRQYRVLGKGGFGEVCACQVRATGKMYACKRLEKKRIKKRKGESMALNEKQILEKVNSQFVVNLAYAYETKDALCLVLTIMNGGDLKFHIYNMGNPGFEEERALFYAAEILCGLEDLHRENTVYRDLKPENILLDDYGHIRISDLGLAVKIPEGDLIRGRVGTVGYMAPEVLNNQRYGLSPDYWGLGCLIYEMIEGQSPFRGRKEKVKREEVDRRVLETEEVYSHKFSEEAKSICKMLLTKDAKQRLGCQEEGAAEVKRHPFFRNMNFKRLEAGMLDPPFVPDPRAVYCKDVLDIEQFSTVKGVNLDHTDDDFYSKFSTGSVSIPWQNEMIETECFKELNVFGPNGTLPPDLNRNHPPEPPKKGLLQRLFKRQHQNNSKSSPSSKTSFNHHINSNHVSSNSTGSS
T5 sequence (P19784 whole entry, the tested form may be a part): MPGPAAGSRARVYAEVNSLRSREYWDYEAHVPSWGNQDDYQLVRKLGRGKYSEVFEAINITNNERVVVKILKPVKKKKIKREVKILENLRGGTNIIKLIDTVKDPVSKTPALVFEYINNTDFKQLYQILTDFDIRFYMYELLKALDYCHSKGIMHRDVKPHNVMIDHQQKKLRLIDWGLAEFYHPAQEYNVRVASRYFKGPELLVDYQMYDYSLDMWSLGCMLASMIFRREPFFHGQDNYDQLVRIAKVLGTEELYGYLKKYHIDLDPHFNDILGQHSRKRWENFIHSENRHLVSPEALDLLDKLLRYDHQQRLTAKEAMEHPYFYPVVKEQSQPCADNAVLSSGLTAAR
T3 sequence (Q9NSY1 whole entry, the tested form may be a part): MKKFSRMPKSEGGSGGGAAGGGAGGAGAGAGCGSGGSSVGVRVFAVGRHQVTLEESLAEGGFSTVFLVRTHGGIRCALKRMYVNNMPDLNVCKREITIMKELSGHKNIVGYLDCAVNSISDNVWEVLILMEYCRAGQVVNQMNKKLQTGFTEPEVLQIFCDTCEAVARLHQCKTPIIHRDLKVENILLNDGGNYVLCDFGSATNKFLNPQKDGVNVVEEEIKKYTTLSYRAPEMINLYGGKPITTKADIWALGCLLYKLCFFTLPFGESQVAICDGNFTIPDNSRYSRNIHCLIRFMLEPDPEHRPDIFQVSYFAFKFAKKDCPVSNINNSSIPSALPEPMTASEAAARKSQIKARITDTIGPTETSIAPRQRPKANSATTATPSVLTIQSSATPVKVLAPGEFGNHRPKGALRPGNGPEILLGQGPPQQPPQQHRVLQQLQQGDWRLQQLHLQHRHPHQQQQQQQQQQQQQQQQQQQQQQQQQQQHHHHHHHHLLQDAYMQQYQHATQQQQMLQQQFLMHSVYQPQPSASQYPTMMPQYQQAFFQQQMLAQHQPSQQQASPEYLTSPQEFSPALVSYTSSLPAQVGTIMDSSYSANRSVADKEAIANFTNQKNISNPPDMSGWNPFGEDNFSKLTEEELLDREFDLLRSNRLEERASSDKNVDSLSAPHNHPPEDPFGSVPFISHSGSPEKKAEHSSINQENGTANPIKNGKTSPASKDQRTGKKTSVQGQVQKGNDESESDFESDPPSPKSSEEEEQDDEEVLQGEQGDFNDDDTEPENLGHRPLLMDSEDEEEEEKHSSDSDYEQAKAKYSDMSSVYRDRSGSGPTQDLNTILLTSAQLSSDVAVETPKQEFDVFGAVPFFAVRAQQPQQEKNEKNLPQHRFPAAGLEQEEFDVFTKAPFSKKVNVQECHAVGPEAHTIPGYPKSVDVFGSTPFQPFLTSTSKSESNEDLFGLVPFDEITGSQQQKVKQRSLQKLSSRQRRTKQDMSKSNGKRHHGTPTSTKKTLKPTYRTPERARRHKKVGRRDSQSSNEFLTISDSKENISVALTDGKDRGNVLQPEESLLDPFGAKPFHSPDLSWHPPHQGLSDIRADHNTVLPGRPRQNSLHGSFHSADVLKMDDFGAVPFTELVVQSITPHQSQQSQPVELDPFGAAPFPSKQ
T9 sequence (P53779 whole entry, the tested form may be a part): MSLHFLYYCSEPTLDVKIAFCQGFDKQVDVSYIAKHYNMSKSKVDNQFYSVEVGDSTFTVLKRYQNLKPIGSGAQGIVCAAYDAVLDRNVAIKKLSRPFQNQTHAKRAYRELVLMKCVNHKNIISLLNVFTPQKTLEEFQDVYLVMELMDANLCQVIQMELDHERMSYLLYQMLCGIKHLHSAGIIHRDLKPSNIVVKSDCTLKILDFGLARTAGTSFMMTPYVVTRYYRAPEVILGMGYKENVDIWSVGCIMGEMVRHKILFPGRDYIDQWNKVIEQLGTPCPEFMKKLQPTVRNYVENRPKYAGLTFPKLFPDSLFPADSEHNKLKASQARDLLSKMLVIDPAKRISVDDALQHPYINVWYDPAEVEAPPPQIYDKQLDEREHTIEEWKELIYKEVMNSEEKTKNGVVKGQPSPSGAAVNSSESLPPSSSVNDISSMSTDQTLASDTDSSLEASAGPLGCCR
T11 sequence (P21802 22-821): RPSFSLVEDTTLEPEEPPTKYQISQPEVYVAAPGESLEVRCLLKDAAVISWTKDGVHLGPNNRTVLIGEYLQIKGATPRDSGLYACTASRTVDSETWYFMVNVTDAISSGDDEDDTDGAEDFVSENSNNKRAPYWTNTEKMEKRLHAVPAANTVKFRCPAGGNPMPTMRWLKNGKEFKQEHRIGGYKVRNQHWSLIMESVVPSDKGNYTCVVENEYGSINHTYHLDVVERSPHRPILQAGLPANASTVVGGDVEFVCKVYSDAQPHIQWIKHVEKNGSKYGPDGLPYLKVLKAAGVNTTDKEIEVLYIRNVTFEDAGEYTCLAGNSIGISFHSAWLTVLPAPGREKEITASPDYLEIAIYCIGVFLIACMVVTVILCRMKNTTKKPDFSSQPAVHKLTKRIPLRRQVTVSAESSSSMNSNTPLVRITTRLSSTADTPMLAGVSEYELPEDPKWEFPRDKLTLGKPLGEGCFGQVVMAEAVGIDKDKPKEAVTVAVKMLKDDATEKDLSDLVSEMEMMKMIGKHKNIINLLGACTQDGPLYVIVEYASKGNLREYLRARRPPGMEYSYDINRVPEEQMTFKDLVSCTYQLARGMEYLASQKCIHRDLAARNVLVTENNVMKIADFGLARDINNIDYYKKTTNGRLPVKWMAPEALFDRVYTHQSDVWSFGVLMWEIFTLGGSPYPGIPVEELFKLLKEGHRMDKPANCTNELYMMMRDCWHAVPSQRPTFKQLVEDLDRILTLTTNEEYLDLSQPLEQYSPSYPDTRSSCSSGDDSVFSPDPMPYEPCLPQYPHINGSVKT
T10 sequence (Q14680 whole entry, the tested form may be a part): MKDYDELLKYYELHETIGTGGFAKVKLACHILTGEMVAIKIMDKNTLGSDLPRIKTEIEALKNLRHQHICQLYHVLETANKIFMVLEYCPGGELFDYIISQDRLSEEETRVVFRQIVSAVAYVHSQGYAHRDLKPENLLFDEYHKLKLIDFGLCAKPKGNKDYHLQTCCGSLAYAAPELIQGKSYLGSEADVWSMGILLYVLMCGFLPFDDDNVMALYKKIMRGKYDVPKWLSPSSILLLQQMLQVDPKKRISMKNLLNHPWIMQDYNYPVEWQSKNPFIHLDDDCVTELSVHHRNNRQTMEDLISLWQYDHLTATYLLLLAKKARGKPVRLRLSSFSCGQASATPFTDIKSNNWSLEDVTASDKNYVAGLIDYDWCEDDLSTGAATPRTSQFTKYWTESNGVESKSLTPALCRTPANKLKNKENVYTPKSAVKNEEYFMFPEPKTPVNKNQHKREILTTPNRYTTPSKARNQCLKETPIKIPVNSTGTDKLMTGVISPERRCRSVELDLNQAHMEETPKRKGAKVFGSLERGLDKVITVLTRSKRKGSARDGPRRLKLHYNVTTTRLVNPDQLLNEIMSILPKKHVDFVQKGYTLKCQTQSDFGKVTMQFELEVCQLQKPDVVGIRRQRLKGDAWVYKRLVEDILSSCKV

∆Tm (K) (LRRK2^KW)	dTm [1] [K]	dTm [2] [K]	dTm [3] [K]	dTm [4] [K]	dTm [5] [K]	dTm [6] [K]	dTm [7] [K]	dTm [8] [K]	dTm [9] [K]	dTm [10] [K]	Compound
9.1	0.90	5.95	1.22	5.87	7.55	1.79	1.85	-1.31	11.82	1.78	Cc1ccc(NC(=O)C2(C(=O)Nc3cccc(-c4c[nH]c5ncnc(N6CCOCC6)c45)c3)CC2)cc1 [Compound 14]
9.1	1.27	4.66	1.75	1.24	9.77	2.19	2.19	-0.66	6.77	2.28	CCc1ccc(NC(=O)C2(C(=O)Nc3cccc(-c4c[nH]c5ncnc(N6CCOCC6)c45)c3)CC2)cc1 [Compound 15]
4.3	0.44	4.89	-0.76	4.77	4.53	1.00	1.33	0.65	8.41	1.54	COc1ccc(NC(=O)C2(C(=O)Nc3cccc(-c4c[nH]c5ncnc(N6CCOCC6)c45)c3)CC2)cc1 [Compound 16]
10.3	0.75	7.72	2.10	8.40	9.62	-0.81	2.59	1.84	14.46	2.62	O=C(Nc1cccc(-c2c[nH]c3ncnc(N4CCOCC4)c23)c1)C1(C(=O)Nc2ccc(F)c(F)c2)CC1 [Compound 17]
12.3	0.43	8.58	3.39	1.36	7.28	-0.75	3.38	3.57	13.04	4.02	O=C(Nc1cccc(-c2c[nH]c3ncnc(N4CCOCC4)c23)c1)C1(C(=O)Nc2ccc(F)c(Cl)c2)CC1 [Compound 18]
14.0	0.28	8.80	5.35	7.91	0.00	0.10	4.06	4.40	17.38	4.16	O=C(Nc1cccc(-c2c[nH]c3ncnc(N4CCOCC4)c23)c1)C1(C(=O)Nc2ccc(F)c(Br)c2)CC1 [Compound 19]
13.3	1.05	8.74	2.80	1.33	12.28	-0.56	5.67	0.56	17.51	4.17	Cc1cc(NC(=O)C2(C(=O)Nc3cccc(-c4c[nH]c5ncnc(N6CCOCC6)c45)c3)CC2)ccc1F [Compound 20]
9.3	0.34	6.71	1.23	3.16	10.46	1.43	3.09	0.29	16.69	2.99	COc1cc(NC(=O)C2(C(=O)Nc3cccc(-c4c[nH]c5ncnc(N6CCOCC6)c45)c3)CC2)ccc1F [Compound 21]
12.0	-0.26	4.67	4.22	2.45	9.02	-1.17	4.95	1.37	17.31	3.68	CC(C)(C)c1cccc(NC(=O)C2(C(=O)Nc3cccc(-c4c[nH]c5ncnc(N6CCOCC6)c45)c3)CC2)c1 [Compound 22]
